Measurements reported in paper PMC7893915, “Assessing cross-resistance within the pyrethroids in terms of their interactions with key cytochrome P450 enzymes and resistance in vector populations” (Parasites & Vectors, 2021).

What was measured:
Helicoverpa armigera = test system: Helicoverpa armigera; design: method as in PMID 17685437; settings: pyrethroids with a polyfluorobenzyl group instead of the phenoxybenzyl group; ref [48]; cited from earlier work
[1] = test system: An. funestus strain, FUMOZ-R; design: method as in PMID 26930058; settings: strain with upregulated P450 levels without any target-site mutations; ref [47]; cited from earlier work
CYP9J5 = settings: read-out: IC50 CYP9J5; inhibition of diethoxyfluorescein metabolism; footnote b; ref Yunta et al. 2019[10]; cited from earlier work
CYP6Z2 = biological target: T1, CYP6Z2 (Anopheles gambiae, UniProt Q7PNB5); test: Inhibition screening of pyrethroids, diethoxyfluorescein, CYP6Z2; format: biochemical
T1 sequence (Q7PNB5 1-492): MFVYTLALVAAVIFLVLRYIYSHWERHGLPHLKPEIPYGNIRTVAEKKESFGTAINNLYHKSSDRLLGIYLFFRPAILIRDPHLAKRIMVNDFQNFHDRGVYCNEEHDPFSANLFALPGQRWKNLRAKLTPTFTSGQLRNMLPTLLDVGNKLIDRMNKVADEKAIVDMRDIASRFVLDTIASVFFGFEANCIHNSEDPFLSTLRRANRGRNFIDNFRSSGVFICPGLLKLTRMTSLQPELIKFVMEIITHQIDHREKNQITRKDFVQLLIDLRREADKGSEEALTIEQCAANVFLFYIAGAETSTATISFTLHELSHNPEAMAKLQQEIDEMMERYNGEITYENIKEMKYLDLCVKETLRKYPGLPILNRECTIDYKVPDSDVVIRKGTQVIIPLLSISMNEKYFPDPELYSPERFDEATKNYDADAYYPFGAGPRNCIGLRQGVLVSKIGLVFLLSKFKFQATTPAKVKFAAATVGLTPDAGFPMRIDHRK
T1 sequence (Q86QH5 1-679 partner): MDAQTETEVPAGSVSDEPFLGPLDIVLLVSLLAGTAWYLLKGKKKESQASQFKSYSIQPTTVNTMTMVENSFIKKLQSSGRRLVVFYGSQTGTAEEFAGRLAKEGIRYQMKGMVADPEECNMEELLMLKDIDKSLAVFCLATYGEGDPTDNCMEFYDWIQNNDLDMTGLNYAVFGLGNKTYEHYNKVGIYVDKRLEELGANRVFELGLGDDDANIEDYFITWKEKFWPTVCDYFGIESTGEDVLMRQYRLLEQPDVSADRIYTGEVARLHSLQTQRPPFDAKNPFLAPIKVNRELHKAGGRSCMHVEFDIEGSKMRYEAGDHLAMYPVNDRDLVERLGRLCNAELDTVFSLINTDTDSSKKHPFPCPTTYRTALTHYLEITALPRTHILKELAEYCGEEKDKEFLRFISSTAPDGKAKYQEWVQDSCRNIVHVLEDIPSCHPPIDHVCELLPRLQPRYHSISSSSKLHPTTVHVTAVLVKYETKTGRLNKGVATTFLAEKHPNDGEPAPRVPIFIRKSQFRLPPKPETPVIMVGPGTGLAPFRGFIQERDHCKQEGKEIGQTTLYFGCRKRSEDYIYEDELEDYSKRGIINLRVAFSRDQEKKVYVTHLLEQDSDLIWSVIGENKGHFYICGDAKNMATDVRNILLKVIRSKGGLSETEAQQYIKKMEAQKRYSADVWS

CYP6P3 = settings: read-out: IC50 CYP6P3; inhibition of diethoxyfluorescein metabolism; footnote b; ref Yunta et al. 2019[10]; cited from earlier work
Gambiae Complex = settings: ID 100156; F0, larval collection, 5/2009-4/2010, Chano, Ethiopia; WHO Bioassay 1998; ref Massebo F et al. Parasites Vectors. 2013;6; cited from earlier work
CYP6P2 = settings: read-out: IC50 CYP6P2; inhibition of diethoxyfluorescein metabolism; footnote b; ref Yunta et al. 2019[10]; cited from earlier work
CYP6P9a = settings: read-out: IC50 CYP6P9a; inhibition of diethoxyfluorescein metabolism; footnote b; ref Yunta et al. 2019[10]; cited from earlier work
[2] = test system: P450 panel (CYP6M2, CYP6P3, CYP6P9a, CYP6P2, CYP9J5, CYP6Z3, CYP6Z2); test: P450 inhibition, whole P450 panel (mean across P450s); format: biochemical, Anopheles gambiae and An. funestus; settings: Anopheles gambiae and Anopheles funestus
Text: (§1) Cytochrome P450 inhibition assays using fluorogenic probe substrates have become commonplace in drug discovery screening cascades and are a rapid method of screening for insecticide interactions with mosquito P450s to predict insecticide binding, metabolism, cross-resistance and synergism. In this study, the half maximal inhibitory concentration (IC50), which provides a value for inhibition of each P450 by each pyrethroid (also referred to as ‘binding affinity’), and the percentage depletion, which gives a value for metabolism of each pyrethroid by each P450 (also referred to as vulnerability to metabolic attack), were both included as parameters to establish a P450s structural activity relationship model. This model was used to understand both the chemistry of the pyrethroids and the interaction with mosquito P450s that function as monooxygenases in metabolic resistance, to predict cross-resistance liabilities in vivo. […] A low percentage depletion indicates low metabolism of the pyrethroid, which means that it may be less vulnerable to resistance mediated by P450s.
(§2) In addition, inhibition activity data for these pyrethroids exposed to CYP6Z3 from the An. gambiae Kisumu strain were also generated (Additional file 1).

CYP6Z3 = biological target: T2, CYP6Z3 (Anopheles gambiae, UniProt Q86LT6, H411Y/S209G/W396L); test: Inhibition screening of pyrethroids, diethoxyfluorescein, CYP6Z3; format: biochemical
T2 sequence (Q86LT6 1-492 S209G/W396L/H411Y): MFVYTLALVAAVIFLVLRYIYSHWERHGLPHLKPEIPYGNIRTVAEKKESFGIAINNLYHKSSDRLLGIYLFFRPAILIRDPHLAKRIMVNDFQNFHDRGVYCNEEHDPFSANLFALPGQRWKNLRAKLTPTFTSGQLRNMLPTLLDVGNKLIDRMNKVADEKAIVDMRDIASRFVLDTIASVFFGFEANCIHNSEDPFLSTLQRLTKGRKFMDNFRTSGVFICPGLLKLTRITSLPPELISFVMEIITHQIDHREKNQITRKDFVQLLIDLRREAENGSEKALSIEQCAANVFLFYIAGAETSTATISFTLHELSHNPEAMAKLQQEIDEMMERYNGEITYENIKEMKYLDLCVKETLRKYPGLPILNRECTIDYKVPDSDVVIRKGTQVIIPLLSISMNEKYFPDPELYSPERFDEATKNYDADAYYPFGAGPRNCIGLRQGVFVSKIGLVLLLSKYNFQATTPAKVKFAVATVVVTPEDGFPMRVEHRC
T2 sequence (Q86QH5 1-679 partner): T1 sequence (Q86QH5 1-679 partner)
Text: as §1, §2
1. Preparation of An. gambiae CYP6Z3 and cloning
Total RNA was extracted with Arcturus PicoPure Kit (Applied Biosystems, USA) from ten adult An. gambiae mosquitoes from the Kisumu strain [1]. Complementary DNA was prepared using Superscript III (Invitrogen) with an oligo (dT)20 primer and used as a template for amplifying full -length AgCyp6z3 with KOD DNA polymerase (Merk Chemicals) . The gene-specific primers used in these high -fidelity PCRs (Table S1) were designed according to the reference An. gambiae PEST CYP6Z3 genome sequence (Accession number AY193727) The PCR product was ligated into pGEM T-easy vector (Promega) and sequenced on both strands. Consistent with the high frequency of polymorphism in An. gambiae P450s [2](Martin Nature Ref) there were 36 single nucleotide polymorphism (SNPs) compared with the reference sequence, of which three produced amino acid changes, S209G, W396L, and H411Y. For expression, the ompA leader sequence (ompA) was engineered onto the amino - terminus of the AgCyp6z3 gene to direct the P450 into the E. coli […] during expression as previously described. The ompA-leader was fused to AgCyp6z3 cDNA in frame with AgCyp6z3 initiation codon by fusion PCR using High fidelity Phusion polymerase (Scientific). The ompA AgCyp6z3 fusion was flanked at the 5′ and 3′ ends with NdeI and EcoR1, respectively for ligation into NdeI/EcoRI linearised pB13 (pCWori+).
Table S1. Primers used for amplification of CYP6Z3 and in vitro functional characterisation […]
ompA+2 Forward […]
ompA+2 CYP6Z3 fusion […]
2. Preparation of membranes expressing P450 and AgCPR
To express functional P450, AgCyp6z3 cloned into pB13 plasmid was co-transformed into E. coli JM109 cells with An. gambiae NADPH-cytochrome P450 reductase (AgCPR-pACYC). The P450 and the AgCPR were previously fused with ompA and pelB leader sequences respectively to direct the expressed proteins to the inner bacterial periplasm in order to form functional monooxygenase complex. For P450 production, 200 mL E. coli cultures in Terrific Broth were incubated at 21°C with shaking at 120 RPM for 18–24 h after induction with 1 mM IPTG. Following expression, E. coli membranes containing CYP6Z3 were isolated and P450 and AgCPR content measured as previously described. Samples were stored in aliquots of 100 µL at −80°C. An. gambiae cytochrome b5 was prepared as described previously to supplement enzyme reactions at an 8:1 M ratio, b5: P450 [4].
3. Inhibition screening of pyrethroids.
Inhibition screening of pyrethroid inhibitors and IC50 calculations carried out according Yunta et al. […]

Anopheles sinensis = test system: Anopheles sinensis; design: method as in PMID 24159535; settings: resistance ratios using LC50 values from a susceptible strain; most susceptible to bifenthrin, cyfluthrin and etofenprox, in that order; ref [55]; cited from earlier work
Ae. aegypti = test: WHO adult susceptibility test on field samples, Ae. aegypti; format: in vivo, Aedes aegypti; settings: standard diagnostic doses
Text: The analyses conducted using data from An. gambiae (s.l.) samples were repeated using data from the An. funestus subgroup, An. arabiensis, An. coluzzii, An. funestus and An. gambiae samples (Additional file 2). The same approach was also used for susceptibility test data from Aedes albopictus and Ae. aegypti to investigate whether the same relationships could be detected in these vectors of arboviruses, as detailed in Additional file 3.
Additional File 3: Cross-resistance to pyrethroids within wild populations of Aedes vectors […]
If structural diversity within the pyrethroids is also associated with divergence in resistance within the Aedes vectors of arboviruses, this would lend weight to the findings for malaria vectors presented in the main manusc ript. Like the Anopheles vectors, target-site mutations and metabolic resistance are thought to be the main resistance mechanisms in Aedes mosquitoes. At least ten mutations in the Aedes aegypti Vgsc gene have been identified and the most widespread mutation, […]
mutations and is also associated with DDT resistance. More recently, the V1016G mutation has been found in Ae. albopictus in Viet Nam and Italy, and both this allele and the F1534C and F1534S […]
expression of cytochrome P450s has also been implicated in pyrethroid resistance within Aedes mosquitoes and there is evidence that metabolic resistance can confer cross -resistance to multiple pyrethroids. For example, over-expression of CYP9J28 is associated with metabolic resistance to […]
target site- and P450-mediated resistance in Ae. aegypti strains found variation in resistance to seven pyrethroids and hypothesised that some patterns of resistance could be linked to structural differences, but also noted that general conclusions are challenging to make without a greater number of compounds with a single modification to compare. No studies of structure activity relationships using a wide range of pyrethroids and P450s from Aedes mosquitoes have been conducted to-date, but data on resistance in wild populations are available. A wider range of pyrethroids are more typically tested by studies of resistance in Aedes vectors, compared to Anopheles vectors, although these studies are also more varied in terms of diagnostic dose, bioass ay method and life cycle stage, making comparisons across studies difficult. Here we selected studies that used a common experimental design and investigated correlations in resistance to pairs of pyrethroids mirroring part of the work on Anopheles vectors presented in the main manuscript.
We identified all instances within a public insecticide resistance database where an Aedes field sample had been subdivided among tests for different pyrethroids. We then identified the most commonly used bioassay type across the new pyrethroid dataset, which was the WHO adult susceptibility test as described for malaria vectors, and the most commonly used diagnostic dose for […]
each compound (Table S2). […]
removed. Paired results were then extracted, and the mean values for the Pearson’s correlation coefficient were calculated for each pyrethroid pair using 1,000 bootstaps in SPSS Statistics v25.
Table S5. Diagnostic doses and data volumes for each pyrethroid.
Pyrethroid Most common dose Number of data points
The number of data points available for each pyrethroid from an Ae. aegypti sample that was used to test at least one other pyrethroid, using standard WHO susceptibility tests and standard diagnostic doses, is given.

Cc1c(F)c(F)c(COC(=O)[C@@H]2[C@H](/C=C(\Cl)C(F)(F)F)C2(C)C)c(F)c1F (racemic) [tefluthrin]
effect on cross-resistance, in words (Helicoverpa armigera): overcame most of this resistance

CC1(C)[C@H](C=C(Cl)Cl)[C@H]1C(=O)OCc1c(F)c(F)cc(F)c1F [transfluthrin]
effect on cross-resistance, in words (Helicoverpa armigera): overcame most of this resistance
effectiveness with or without piperonyl butoxide (PBO), in words [1]: effective in the absence of the generic P450 inhibitor

CC1(C)C(C=C(Cl)Cl)C1C(=O)OC(C#N)c1cccc(Oc2ccccc2)c1 (stereo not drawn) [⍺-cypermethrin, α-cypermethrin]
IC50 (CYP9J5): 13.5 µM
IC50 (CYP6Z2): 8.6 µM
IC50 (CYP6P3): 2.6 µM
mortality (Gambiae Complex): 50
IC50 (CYP6P2): 9.8 µM
IC50 (CYP6P9a): 4.2 µM
IC50 [2]: 6.4 µM
IC50 (CYP6Z3): 4.4 µM

CC1(C)C(C=C(Cl)Cl)C1C(=O)OC(C#N)c1ccc(F)c(Oc2ccccc2)c1 (centres unmarked) [cyfluthrin]
mortality (Gambiae Complex): 50
susceptibility of larvae, rank in words (Anopheles sinensis): most susceptible
Mean percent mortality (SE) (Ae. aegypti; Pair 2 cyfluthrin vs etofenprox, N 22 paired Ae. aegypti samples): 87.78 (3.56) percent
Mean percent mortality (SE) (Ae. aegypti; Pair 5 permethrin vs cyfluthrin, N 79 paired Ae. aegypti samples): 89.27 (1.61) percent
Mean percent mortality (SE) (Ae. aegypti; Pair 7 λ-cyhalothrin vs cyfluthrin, N 25 paired Ae. aegypti samples): 85.01 (3.81) percent
Mean percent mortality (SE) (Ae. aegypti; Pair 10 deltamethrin vs cyfluthrin, N 72 paired Ae. aegypti samples): 88.58 (1.73) percent
